Measurements published in patent US9782411B2, “{4-[5-(3-chloro-phenoxy)-oxazolo[5,4-d]pyrimidin-2-yl]-2,6-dimethyl-phenoxy}-acetic acid for use in the prevention or treatment of acute kidney injury” (Sanofi, priority 2013, dated 2017).

How the values were obtained:
[1] = target: S1P3 (Homo sapiens, UniProt Q99500); test: FlipR (Chem) GPCRProfiler assay, S1P3; type: cell-based
From the text: (§1) The GPCRProfiler® assay from Millipore was used to determine the EC50 activity of compound A, BAF-312 and fingolimod on S1P1, S1P2, S1P3, S1P4 or S1P5 receptors. These assays used ChemiScreen GPCR stable cell lines.

[2] = target: S1P5 (Homo sapiens, UniProt Q9H228); test: FlipR (Chem) GPCRProfiler assay, S1P5; type: cell-based
From the text: as §1

[3] = target: S1P2 (Homo sapiens, UniProt O95136); test: PathHunter β-arrestin assay, S1P2; type: cell-based; conditions: 0.5% FBS
Protocol: The PathHunter® β-Arrestin Assay from DiscoverX was used to determine the EC50 activity of compound A, BAF-312 and fingolimod on S1P1, S1P2, S1P3, S1P4 or S1P5 receptors. The compounds were tested in assay medium containing 0.5% FBS.

[4] = target: T1, human ERG (ether-a-go-go related gene) potassium channel (Homo sapiens, UniProt Q12809); test: hERG assay (patch clamp, CHO cells); type: cell-based
T1 construct: host or cells: CHO (Chinese Hamster Ovary)
Protocol: Recombinant CHO (Chinese Hamster Ovary) cell line expressing the human ERG (ether-a-go-go related gene) potassium channel (Cytomyx Catalogue Number: CYL3002) has been cultured according to the following protocol. When necessary a culture has been restarted from frozen aliquots. The aliquots of frozen cells (1 mL) were rapidly warmed to 37° C. and first replated in a 75 cm^2 flask (Corning). The volume was then adjusted to 10 mL with the α-Minimum Essential Medium (Gibco 32571-028) containing 10% fetal calf serum. The medium has been renewed after 24 h and 1% geneticin (G418, Gibco 10131) has been added to prevent cellular derivation. […]
The hERG current was activated in response to voltage steps (2 s) from a holding potential of −80 mV to a test potential of +20 mV followed by a repolarization to −100 mV. Voltage steps were applied at 20 s intervals. hERG current was measured as the tail deactivating current at −100 mV. After a 3 minutes period for baseline measurements, compound A effects were measured 4-6 minutes after the change of solution.
The currents were analyzed using a database and analysis software DataXpress 1.0 (Axon Instruments/Molecular Devices).
Where “I” was the current measured after drug effect, “Irisperidone” was the current measured after the effect of the specific hERG-blocker and “Ibaseline” was the current measured before the superfusion of drug.

[5] = system: isolated rabbit Purkinje fibers; test: Rabbit Purkinje fibers assay
Protocol: The effects of compound A on resting membrane potential and action potential parameters recorded from isolated rabbit Purkinje fibers (male, New Zealand rabbits; 1.3 to 1.5 kg; 9-12 weeks of age) were evaluated through a microelectrode technique. […] The fibers were superfused with an oxygenated physiological solution containing (in mmol/L): NaCl, 120; KCl, 4; MgCl2, 1; NaH2PO4, 1.8; NaHCO3, 25; glucose, 11; CaCl2, 1.8; pH=7.4, at 36±1° C. Compound A was first dissolved into DMSO to obtain a 12 mmol/L stock solution. This solution was further diluted into DMSO and then added into the physiological solution to obtain the appropriate nominal concentrations of 0.3, 1, 3, 10 and 30 μmol/L (i.e., 0.1, 0.5, 1.4, 4.5 and 13.6 μg/mL of active ingredient, respectively). The final concentration of DMSO in the test formulation was kept constant at 0.25% (v/v) in the physiological solution. Purkinje fibers (n=4) were first superfused by the physiological solution. After a 30-minute control period, test compound was evaluated at increasing concentrations sequentially applied, every 30 minutes. For each tested concentration, the fibers were stimulated at the basal rate of 1 pulse per second (1 Hz). […]

[6] = system: peripheral blood lymphocytes; test: Mouse lymphopenia studies; type: in vivo; conditions: 3 and 10 mg/kg, mice
Protocol: Male C57BI6/J mice (n=8, 25-30 g) (Charles River Laboratory, France) received a single oral administration of compound A at 1, 3, 10 and 30 mg/kg or vehicle article (methylcellulose 0.6%—tween 80 0.5% in water) within a volume of administration of 10 mL/kg. Blood was collected at 2, 6 and 24 h following compound administration for haematology analysis to determine whole blood lymphocyte count. Results are expressed as mean+/−s.e.m.

[7] = target: S1P1 (Homo sapiens, UniProt P21453); test: Impedance assay (CEREP), CHO; type: cell-based; design: host or cells: CHO (PathHunter); conditions: 10% FBS + 0.1% BSA
From the text: The Impedance Assay from CEREP was used to determine the EC50 activity of compound A, BAF-312 and fingolimod on S1P1.

Chain of S1P2 (O95136 whole entry): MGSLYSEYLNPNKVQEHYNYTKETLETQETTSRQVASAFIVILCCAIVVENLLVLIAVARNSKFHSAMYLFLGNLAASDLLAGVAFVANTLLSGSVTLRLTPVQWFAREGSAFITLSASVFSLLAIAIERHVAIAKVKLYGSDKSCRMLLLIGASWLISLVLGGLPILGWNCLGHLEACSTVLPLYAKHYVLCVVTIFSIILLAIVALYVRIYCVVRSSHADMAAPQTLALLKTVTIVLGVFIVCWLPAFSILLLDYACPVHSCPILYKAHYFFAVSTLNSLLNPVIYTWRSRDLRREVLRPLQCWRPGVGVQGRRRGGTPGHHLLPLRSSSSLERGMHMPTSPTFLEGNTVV
Chain of S1P3 (Q99500 whole entry): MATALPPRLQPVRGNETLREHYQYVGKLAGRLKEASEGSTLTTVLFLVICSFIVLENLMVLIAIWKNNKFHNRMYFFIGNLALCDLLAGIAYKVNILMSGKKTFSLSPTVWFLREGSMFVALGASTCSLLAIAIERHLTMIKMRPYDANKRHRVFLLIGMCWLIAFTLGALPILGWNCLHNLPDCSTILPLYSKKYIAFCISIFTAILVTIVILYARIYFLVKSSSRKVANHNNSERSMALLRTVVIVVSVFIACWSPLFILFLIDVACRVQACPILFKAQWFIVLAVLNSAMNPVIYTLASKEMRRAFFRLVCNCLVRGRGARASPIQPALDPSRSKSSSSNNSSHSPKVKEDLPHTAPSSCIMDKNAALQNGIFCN
Chain of S1P5 (Q9H228 whole entry): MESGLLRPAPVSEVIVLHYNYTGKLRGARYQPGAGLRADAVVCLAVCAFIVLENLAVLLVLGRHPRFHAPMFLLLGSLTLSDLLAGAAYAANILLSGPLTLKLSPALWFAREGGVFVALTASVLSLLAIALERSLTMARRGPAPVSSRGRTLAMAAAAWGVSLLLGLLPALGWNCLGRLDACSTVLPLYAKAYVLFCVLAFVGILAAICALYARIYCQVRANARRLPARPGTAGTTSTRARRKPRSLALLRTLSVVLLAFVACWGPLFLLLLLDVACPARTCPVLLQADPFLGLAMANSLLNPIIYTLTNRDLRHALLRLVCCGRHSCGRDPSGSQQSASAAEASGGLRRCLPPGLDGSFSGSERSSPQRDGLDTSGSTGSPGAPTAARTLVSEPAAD
T1 sequence (Q12809 whole entry): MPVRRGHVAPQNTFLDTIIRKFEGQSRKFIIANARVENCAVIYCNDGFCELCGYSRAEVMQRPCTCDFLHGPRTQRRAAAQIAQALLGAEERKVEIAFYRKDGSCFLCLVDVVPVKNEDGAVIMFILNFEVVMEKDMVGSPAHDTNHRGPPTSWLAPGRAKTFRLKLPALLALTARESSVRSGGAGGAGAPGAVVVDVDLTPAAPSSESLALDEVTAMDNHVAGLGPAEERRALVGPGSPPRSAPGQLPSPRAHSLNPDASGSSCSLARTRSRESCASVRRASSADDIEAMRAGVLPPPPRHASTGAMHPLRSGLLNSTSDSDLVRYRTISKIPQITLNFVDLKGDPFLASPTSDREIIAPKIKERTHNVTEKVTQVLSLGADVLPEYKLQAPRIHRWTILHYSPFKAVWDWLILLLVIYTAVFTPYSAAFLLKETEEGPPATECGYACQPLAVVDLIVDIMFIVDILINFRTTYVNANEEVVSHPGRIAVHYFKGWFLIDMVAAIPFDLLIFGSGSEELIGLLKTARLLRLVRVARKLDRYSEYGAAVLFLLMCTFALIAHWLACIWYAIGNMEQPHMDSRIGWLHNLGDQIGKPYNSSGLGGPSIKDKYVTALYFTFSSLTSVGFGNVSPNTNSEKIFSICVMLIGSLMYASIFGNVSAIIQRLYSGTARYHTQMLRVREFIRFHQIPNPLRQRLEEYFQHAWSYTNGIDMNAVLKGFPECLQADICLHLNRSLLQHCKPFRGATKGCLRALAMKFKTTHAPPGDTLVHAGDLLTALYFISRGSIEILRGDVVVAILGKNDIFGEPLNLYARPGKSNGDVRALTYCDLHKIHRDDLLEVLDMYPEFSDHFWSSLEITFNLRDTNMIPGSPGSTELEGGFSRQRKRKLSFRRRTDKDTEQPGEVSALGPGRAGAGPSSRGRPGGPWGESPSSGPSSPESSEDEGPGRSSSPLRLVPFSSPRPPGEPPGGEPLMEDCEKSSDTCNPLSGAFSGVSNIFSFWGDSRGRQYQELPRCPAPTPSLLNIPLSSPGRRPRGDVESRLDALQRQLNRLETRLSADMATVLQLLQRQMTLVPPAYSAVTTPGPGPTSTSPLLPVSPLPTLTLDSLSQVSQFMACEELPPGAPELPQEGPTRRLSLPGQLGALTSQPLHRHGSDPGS
Chain of S1P1 (P21453 whole entry): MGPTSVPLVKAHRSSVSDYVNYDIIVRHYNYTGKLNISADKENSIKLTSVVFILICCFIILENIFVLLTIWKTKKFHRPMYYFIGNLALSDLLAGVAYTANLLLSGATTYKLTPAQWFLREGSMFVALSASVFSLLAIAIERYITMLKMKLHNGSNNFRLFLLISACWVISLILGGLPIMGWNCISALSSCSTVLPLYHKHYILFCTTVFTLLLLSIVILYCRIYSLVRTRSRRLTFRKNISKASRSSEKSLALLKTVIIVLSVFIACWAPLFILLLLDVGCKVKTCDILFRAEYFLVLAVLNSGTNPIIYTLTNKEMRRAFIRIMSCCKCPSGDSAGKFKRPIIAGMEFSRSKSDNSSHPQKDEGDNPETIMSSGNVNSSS

Row | EC50 [1] [µM] | EC50 [2] [µM] | EC50 [3] [µM] | Effect on action potential ([5]; 26 μM) | Effect on resting membrane potential and action potential parameters ([5]; 0.3 to 10 μM) | Lymphopenic activity [6] | EC50 [7] [µM] | Compound | IC50 [4] [µM]
1 | > 30 | 0.3 | > 10 |  |  |  |  | CCc1cc(/C(C)=N/OCc2ccc(C3CCCCC3)c(C(F)(F)F)c2)ccc1CN1CC(C(=O)O)C1 [BAF-312] | 
2 | > 30 | 1 | > 10 | shortening of the action potential | no significant effect | no lymphopenic activity | 0.065 | Cc1cc(-c2nc3cnc(Oc4cccc(Cl)c4)nc3o2)cc(C)c1OCC(=O)O [Compound A, {4-[5-(3-chloro-phenoxy)-oxazolo[5,4-d]pyrimidin-2-yl]-2,6-dimethyl-phenoxy}-acetic acid] | > 30
